From US5223415A, “Biosynthetic production of 7-[1',2',6',7',8',8a'(R)-hexahydro-2'(S),6'(R)-dimethyl-8'(S)-hydroxy-1' (S)-naphthyl]-3(R),5(R)-dihydroxyheptanoic acid (triol acid)” (Merck & Co., Inc., priority 1992, dated 1993)
Structures can show the parent of a compound that is named as a salt.

Experiments:
[1] = system: crude homogenate of Clonostachys compactiuscula; assay type: biochemical; settings: equal volumes of crude homogenate (about 0.5 mg/ml protein) and lovastatin acid ammonium salt 5 g/L, 29° C., within 2 hrs
Description: Clonostachys compactiuscula ATCC 38009 was grown in 250 ml shake flasks containing 12 ml of medium EN at 29° C. for 3 days. Lovastatin ammonium salt was added to give a concentration of 2.5 g/L and fermentation was continued for 2 additional days. To prepare the crude homogenate, the culture was harvested by centrifugation at 3000 rpm for 10 minutes, after which it was washed with 50 mM of N-tris(hydroxymethyl)methyl-2-aminoethanesulfonic acid (TES) buffer, pH 7.7. The culture medium was again centrifuged and the cell mass was chilled on ice and then subjected to grinding in a mortar and pestle containing glass fragments and powdered dry ice. The contents of 1 shake flask was resuspended in 2.0 ml of 50 mM TES buffer and centrifuged at 6000 rpm for 10 minutes to remove cell debris and glass fragments. The supernatant was used as the source of crude homogenate with protein concentration of approximately 0.5 mg/ml.
In order to carry out the biotransformation, one volume of crude homogenate was combined with an equal volume of lovastatin acid ammonium salt (5 g/L), and the mixture was incubated at 29° C. Using this method, 80-90% conversion of lovastatin acid to triol acid was observed within 2 hrs.

[2] = system: purified Clonostachys compactiuscula esterase; assay type: biochemical; settings: within 16 h; enzyme 4.0 or 40.0 microgram/ml, simvastatin 10 or 35 mM, pH 7.8 or 9.5, methanol 0-20% v/v (conditions listed in table 1)
Description: Clonostachys compactiuscula esterase was purified from 57 g mycelial cells which had been grown up in medium EN using the methods detailed in Examples 1 and 3. The use of a Pharmacia HR 10/10 MONO Q® column allowed the application of 85 mL of crude cell-free extract per purification run. In total 0.89 mg of purified esterase was obtained (in a volume of 10 mL) which was then concentrated to 0.175 mg protein/mL by ultrafiltration using a 10,000 molecular weight cut-off CENTRIPREP® device (AMICON®).
Other conditions which were varied were pH (7.8 and 9.5 were assessed) and methanol concentration (0, 10 and 20% [v/v, final concentration]). The reactions were buffered by the inclusion of either 100 mM TRIS (in the case of reactions carried out at pH 7.8) or 100 mM glycine […]. Greater than 90% hydrolysis of residual lovastatin acid to triol acid was obtained within 16 h under the following conditions: […]

[3] = system: crude hydrolase (6000 rpm supernatant) of Clonostachys compactiuscula ATCC 38009; settings: lovastatin 1.4 mM and simvastatin 18.6 mM ammonium salts solution, 50 mM Tris pH 7.8, methanol, 29 C., after 17 h
Description: The resulting homogenized, frozen powder was transferred to a suitable tube and the material remaining in the mortar washed into the same tube using a minimal volume of 50 mM Tris, pH 7.8. The mixture was then allowed to thaw and then centrifuged at 6000 rpm for 10 minutes to remove large cell debris and glass.
The 6000 rpm supernatant was used as a crude source of hydrolase and 0.8 mL was mixed with 0.2 mL methanol and 1.0 mL of a solution of simvastatin (18.6 mM and lovastatin (1.4 mM) ammonium salts in 50 MM Tris, pH 7.8.) The reaction mixture was incubated at 29 C. and sampled after 1 h, 2 h, and 17 h by removing 0.1 mL and diluting with 0.9 mL methanol. The samples were then subjected to analysis by HPLC using a Whatman C-8 column as stationary phase and a 60:40 mixture of acetonitrile: 0.5% phosphoric acid as mobile phase; under these conditions the respective retention times for simvastatin, lovastatin and triol ammonium salts are 4.4 min., 3.8 min., and 2.5 min.

[4] = system: purified lovastatin acid hydrolase from Clonostachys compactiuscula; assay: Km and specific activity of purified hydrolase with lovastatin ammonium salt as substrate; assay type: biochemical; settings: for specific activity: saturating substrate conditions
Description: A hydrolytic enzyme which carries out the biotransformation of lovastatin acid to triol acid was purified by Fast Protein Liquid Chromatography (FPLC*) employing a MONO Q® anion exchange column to near homogeneity from homogenates of Clonostachys compactiuscula employing the procedures described below.
The supernatant from the 6,000 rpm centrifugation as in Example 2 above, but where 50 mM of tris(hydroxymethyl)aminomethane (TRIS) buffer (pH 7.8) is substituted for 50 mM TES buffer, was centrifuged at 15,000 rpm for 20 minutes and the resulting supernatant filtered through a […] filter. Batches (10 mL) of filtrate containing 0.3-0.5 mg/mL protein were then applied at a rate of 1.0-2.0 mL/minute to a Pharmacia MONO Q® (HR 5/5) anion exchange column connected to a Pharmacia Fast Protein Liquid Chromatography (FPLC) system.
(§1) After allowing binding of the anionic proteins to the column matrix, the hydrolase was specifically eluted by the application of a linear gradient of sodium chloride (0-500 mM) in 20 mM TRIS, pH 7.8. […] When the latter substrate was used, the hydrolytic reaction was monitored spectrophotometrically at 410 nm essentially as described by Lawrence, R. C. et al. in J. Gen. Microbiol. (1967) 48, 401-418.
Using the purified enzyme preparation, the biotransformation was carried out in accordance with the procedures described above in Examples 1, 2, 4 and 6, and an estimate was made of the hydrolase's Km and specific activity with lovastatin ammonium salt as substrate. […]
as §1, with “mM).” for “mM) in 20 mM TRIS, pH 7.8.”, “Microbiol. (1967) 48, 401-418.” left out

| conversion of lovastatin acid to triol acid [1] | hydrolysis of residual lovastatin acid to triol acid [2] | conversion of lovastatin (HPLC area percent reduction) [3] | Km ([4]; lovastatin ammonium salt as substrate, purified enzyme preparation) | SMILES | specific activity ([4]; Example 3) | specific activity ([4]; Example 4) |
| --- | --- | --- | --- | --- | --- | --- |
| 80-90% | Greater than 90% | – | – | CC[C@H](C)C(=O)O[C@H]1C[C@@H](C)C=C2C=C[C@H](C)[C@H](CC[C@@H](O)C[C@@H](O)CC(=O)O)[C@H]21 [lovastatin acid] | – | – |
| – | – | greater than 99% | 4.14 mM | CC[C@H](C)C(=O)O[C@H]1C[C@@H](C)C=C2C=C[C@H](C)[C@H](CC[C@@H](O)C[C@@H](O)CC(=O)O)[C@H]21 [lovastatin ammonium salt] | 0.04 mmol lovastatin ammonium salt hydrolyzed/mg protein per minute | 0.11 mmol lovastatin ammonium salt/mg protein per hour |
